Laboratory results: patent EP2392327A1, “Use of orlistat for the anti-parasitic treatment of a parasitic disease” (Universitätsmedizin der Johannes Gutenberg-Universität Mainz, priority 2010, dated 2011)
Read-outs that look alike come from different tables or passages of the source.

How the values were obtained:
HCT-8 cells = assay: Cytotoxicity in MTS/PMS assay on HCT-8 cells; assay type: cell-based; conditions: HCT-8 cultures, 48 hrs
Experimental: Cells were passaged in maintenance medium at 37°C in a 6% CO2/94% humidified air incubator.
Cytotoxicity of Orlistat was tested in an MTS/PMS assay (Hommer et al., 2003). Orlistat stock solution and DMSO solvent (control) were diluted in culture medium and serial dilutions were applied to HCT-8 cultures for 48 hrs.

Cryptosporidium parvum [1] = assay: In vitro inhibition of the development of Cryptosporidium parvum in HCT-8 cells (cell culture-based enzyme-immune assay)
Experimental: In a cell culture-based enzyme-immune assay increasing concentrations of Orlistat (1 - 15 µM) diluted in culture medium were tested for the inhibition of the development of Cryptosporidium parvum. The parasites were allowed to develop in HCT-8 cells for 48 hrs. The optical readings were converted into parasite growth relative to mean of the controls [%]. […] Orlistat (# 04139, Sigma, Deisenhofen, Germany) was dissolved in DMSO at 10 mM (stock solution). […] Cells were passaged in maintenance medium at 37°C in a 6% CO2/94% humidified air incubator. HCT-8 cells were seeded in 96-well culture plates and infected with Cryptosporidium parvum oocysts (IOWA strain) as described (Hommer et al., 2003). At 2 hrs post infection (p.i.) non-invaded parasites were removed by washing. Orlistat diluted in culture medium or medium alone (negative control) were added. After a total of 48 hrs p.i. culture plates were washed with PBS and fixed with methanol for 15 min. Intracellular stages of Cryptosporidium parvum were detected by an enzyme-immune assay using a monoclonal antibody (McDonald et al., 1995) as described previously (Hommer et al., 2003). Experiments were performed in six-fold replica. Optical density (OD) readings were corrected by the OD of non-infected HCT-8 cells. The means of the infected controls without Orlistat were taken as 100% growth rate. […]

Cryptosporidium parvum [2] = conditions: 1.5x10^6 parasites, 5.0 mg Orlistat per gram dry matter
Text: Error bars represent standard deviations. […] Error bars represent standard deviations.

[3] = cited from earlier work
[4] = within the physiological pH range; cited from earlier work

## CCCCCCCCCCC[C@@H](C[C@@H]1OC(=O)[C@H]1CCCCCC)OC(=O)[C@H](CC(C)C)NC=O [Orlistat]
HCT-8 cells
  cytotoxic effect on HCT-8 cells detected at concentrations: > 20 µM
Cryptosporidium parvum [1]; Cryptosporidium parvum, 15 µM, 48 hrs p.i., HCT-8 host cells, compared to the infected but untreated controls, read-out: inhibition rate
  inhibition at 15 µM: > 90%
Cryptosporidium parvum [1]; all Orlistat concentrations (1 - 15 µM), p < 0.0002
  reduction of parasite development in the HCT-8 host cells: concentration dependent, statistically significant reduction
Cryptosporidium parvum [2]; interferon-gamma deficient mice, p < 0.0006
  reduction of total parasite excretion by a factor: 125
Cryptosporidium parvum [2]; interleukin-12 deficient mice, p < 0.008
  reduction of total parasite excretion by a factor: over 80
[3]; chloroform
  solubility in chloroform: freely soluble
[3]; methanol and ethanol
  solubility in methanol and ethanol: very soluble
[3]; water
  solubility in water: practically insoluble
[4]
  pKa: no pKa within the physiological pH range
